Source: ChEMBL document CHEMBL1131899, “First fatty acylated dipeptides to affect muscarinic receptor ligand binding” (Bioorg Med Chem Lett, 1999)
Where a SMILES comes first, the peptide text is derived from it. The star is where a group is joined. Palmitoyl = CCCCCCCCCCCCCCCC(=O)*; Myristoyl = CCCCCCCCCCCCCC(=O)*; OBn = c1ccc(CO*)cc1

Columns and labels:
[1] = target: T1, Muscarinic acetylcholine receptor M1 (Homo sapiens, UniProt P11229); experiment: (§1) Binding of [3H]QNB to HM1 receptor was evaluated by saturation binding assay
T1 sequence (P11229 whole entry): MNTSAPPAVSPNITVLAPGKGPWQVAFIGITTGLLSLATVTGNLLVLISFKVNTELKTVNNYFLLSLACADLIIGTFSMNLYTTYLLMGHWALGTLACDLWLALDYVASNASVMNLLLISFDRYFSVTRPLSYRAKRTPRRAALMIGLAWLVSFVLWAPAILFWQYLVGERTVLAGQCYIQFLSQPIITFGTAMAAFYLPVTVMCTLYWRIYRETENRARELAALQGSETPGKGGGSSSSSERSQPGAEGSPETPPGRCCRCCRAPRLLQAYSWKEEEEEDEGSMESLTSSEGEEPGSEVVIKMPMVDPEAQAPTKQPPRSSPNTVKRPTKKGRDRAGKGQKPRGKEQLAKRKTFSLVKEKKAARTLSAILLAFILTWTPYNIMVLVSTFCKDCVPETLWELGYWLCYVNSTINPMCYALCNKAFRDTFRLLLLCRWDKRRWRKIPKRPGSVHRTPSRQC

[2] = target: T2, Muscarinic acetylcholine receptor M2 (Homo sapiens) (UniProt P08172); experiment: (§2) Binding of [3H]QNB to HM2 receptor was evaluated by saturation binding assay
T2 sequence (whole entry): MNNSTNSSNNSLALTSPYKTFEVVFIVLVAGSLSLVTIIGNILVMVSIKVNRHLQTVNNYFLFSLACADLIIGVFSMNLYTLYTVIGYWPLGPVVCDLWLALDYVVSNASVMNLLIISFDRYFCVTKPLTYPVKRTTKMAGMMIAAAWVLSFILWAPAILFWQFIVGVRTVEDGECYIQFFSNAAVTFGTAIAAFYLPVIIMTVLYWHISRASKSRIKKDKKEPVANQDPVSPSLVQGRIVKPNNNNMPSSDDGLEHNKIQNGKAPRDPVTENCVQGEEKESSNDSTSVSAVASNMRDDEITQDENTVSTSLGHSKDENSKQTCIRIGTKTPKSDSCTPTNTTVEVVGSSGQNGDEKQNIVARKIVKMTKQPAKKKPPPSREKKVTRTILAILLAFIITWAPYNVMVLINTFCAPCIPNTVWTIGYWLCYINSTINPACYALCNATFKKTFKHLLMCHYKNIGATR

[3] = target: T3, Muscarinic acetylcholine receptor M2 (Homo sapiens, UniProt P08172); experiment: as §2
T3 sequence (P08172 whole entry): T2 sequence (whole entry)

[4] = target: T4, Muscarinic acetylcholine receptor M1 (Homo sapiens) (UniProt P11229); experiment: as §1
T4 sequence (whole entry): T1 sequence (P11229 whole entry)

Row | Kd [1] [nM] | Bmax [2] [pmol/mg] | Kd [3] [nM] | Bmax [4] [pmol/mg] | Structure (SMILES)
1 | 0.03 | 1.8 | 1.78 | 1.2 | CCCCCCCCCCCCCCCC(=O)OC[C@H](NC(=O)CNC(=O)CCCCCCCCCCCCC)C(=O)OCc1ccccc1 (Myristoyl-Gly-Ser(Palmitoyl)-OBn)
2 | 0.04 | 0.8 | 0.15 | 1.7 | CCCCCCCCCCCCCC(=O)NCC(=O)N[C@@H](CO)C(=O)OCc1ccccc1 (Myristoyl-Gly-Ser-OBn)
